This note sets out measurements from patent US8084494B2, “Substituted aminophenylsulfonamide compounds as HIV protease inhibitor” (priority 2005, dated 2011).

One may read the pEC50 as −log10 of the EC50, conventionally taken in molar units.

What all share (assay): microbe, parasite or virus in culture
Common to all, as to type: cell-based

The test system of experiment [1] is clinically isolated HIV strain A-2-001. The conditions noted are these: Human immunodeficiency virus 1, 72 h, read-out: EC50, Virus Strains A-2-001. How it is done:
(§1) The compounds were tested in a cellular assay using the MT4-LTR-EGFP cells for anti-viral activity. […] Because of the increasing emergence of drug resistant HIV strains, the present compounds were tested for their potency against clinically isolated HIV strains harboring several mutations. […] The viral strains A, B, C and D contain mutations as indicated below in Table 2.
(§2) The cellular assay was performed according to the following procedure. HIV- or mock-infected MT4-LTR-EGFP cells were incubated for three days in the presence of various concentrations of the compounds according to the invention. Upon infection, the viral tat protein activates the GFP reporter. At the end of the incubation period, the GFP signal was measured. […] The inhibitory activity of the compound was monitored on the virus-infected cells and was expressed as EC50. These values represent the amount of the compound required to protect 50% of the cells from virus infection.

Experiment [2] relates to clinically isolated HIV strain B-2-001. The conditions noted are these: Human immunodeficiency virus 1, 72 h, read-out: EC50, Virus Strains B-2-001. On the procedure:
as §1, §2

Experiment [3] relates to clinically isolated HIV strain C-2-001. To be noted: Human immunodeficiency virus 1, 72 h, read-out: EC50, Virus Strains C-2-001. How it is done:
as §1, §2

The subject of experiment [4] is clinically isolated HIV strain D-2-001. To be noted: Human immunodeficiency virus 1, 72 h, read-out: EC50, Virus Strains D-2-001. How it is done: as §1, §2
Experiment [5] deals with wild type laboratory HIV strain (WT IIIB-2-001). The conditions noted are these: Human immunodeficiency virus 1, IIIB, 72 h, read-out: EC50, Virus Strains WT IIIB-2-001. On the procedure:
as §1, §2

pEC50: −log10 of the molar value.

For the compound `CC(C)CN(C[C@@H](O)[C@H](Cc1ccccc1)NC(=O)O[C@H]1CO[C@H]2OCC[C@H]21)S(=O)(=O)c1ccc(N)c(NCc2ccccn2)c1` [Compound 80, [3-({4-amino-3-[(pyridin-2-ylmethyl)-amino]-benzenesulfonyl}-isobutyl-amino)-1-benzyl-2-hydroxy-propyl]-carbamic acid hexahydro-furo[2,3-b]furan-3-yl ester], the pEC50 was 8.83 in experiment [1]; 7.03 in experiment [2]; 7.84 in experiment [3]; 7.41 in experiment [4]; 8.05 in experiment [5].
The corresponding values for `CC(C)CN(CC(O)C(Cc1ccccc1)NC(=O)OC1COC2OCCC12)S(=O)(=O)c1ccc(N)c(NCc2ccc(F)cc2F)c1` (stereo not shown) [Compound 78, (3-{[4-amino-3-(2,4-difluoro-benzylamino)-benzenesulfonyl]-isobutyl-amino}-1-benzyl-2-hydroxy-propyl)-carbamic acid hexahydro-furo[2,3-b]furan-3-yl ester] are 9.21, 6.87, 8.00, 7.45 and 8.44.
